Test results taken from US10456374B2, “Pyrrolidone carboxylic acid (PCA) for ophthalmic use” (Laboratori Baldacci S.p.A., priority 2015, dated 2019).

What was measured:
[1] = Residence in the ocular tissue; conditions: stated in the description, no test described
[2] = Ex vivo transcorneal permeation through isolated rabbit cornea; format: in vitro ADME; conditions: donor RBB pH 7.6 with 0.02% w/w PCA and 0.04% w/w hyaluronic acid, 32° C.
Excerpt: Evaluation of PCA Ex Vivo Transcorneal Permeation of a Composition According to Example 2 Through Isolated Rabbit Cornea.
For the determination of ex vivo corneal permeability, rabbit corneas obtained after proptosis of the eye, performed immediately after the animal euthanization, were used. The rabbits were New Zealand albino rabbits (n=3) and were euthanized by intravenous injection of Pentothal sodium (Farmaceutici Gellini, Aprilia, Italy). After the eyes were proptosed, the cornea, with 2 mm of sclera, was immediately excised and mounted in a perfusion apparatus. During the preparation, particular attention was paid to prevent the exfoliation of the corneal epithelium and its contact with any solid surfaces. […]
After the permeation experiment start, at appropriate intervals of time (15, 30, 60, 90, 120, 180 and 240 minutes), 0.50 mL of solution were withdrawn from the receiving compartment (endothelial side) and replaced with fresh RBB. At the end of the experiment, the entire donor phase was collected and submitted to quantitative determination of the active ingredient in a similar manner as provided for the samples of the receiving phase.
Quantitative analysis of PCA was performed by HPLC using a C18 reverse phase column C18 (Bondclone 10 μm 300×3.9 mm), and the eluent was a 98:2 mixture buffer solution to acetonitrile. […]

[3] = Pescina et al, 2015; cited from earlier work

Period of time PCA remains in the ocular tissue [1]	Papp at 240 min, 0.02 % w/w ([2]; New Zealand albino, isolated rabbit cornea, read-out: PCA corneal permeability)	PCA found in the receiving compartment, of the amount present in the donor compartment ([2]; end of the experiment (240 minutes))	SMILES	permeability through porcine cornea [3]
greater than 3 hours	3.95 ×10⁻⁶ cm/s	0.051 % w/w	O=C1CCC(C(=O)O)N1 (stereo not shown) [PCA, Pyrrolidone carboxylic acid]	
			O=C1OC2(c3ccc(O)cc3Oc3cc(O)ccc32)c2ccccc21 [sodium fluorescein]	0.05 10^−5 cm/s
